Structures can show the parent of a compound that is named as a salt. Where two headings read alike, the source gives them in different places.
Assays:
CMKLR1 = molecular target: T1, CMKLR1 (Homo sapiens, UniProt Q99788); experiment: β-arrestin recruitment assay (chemerin-dependent β-arrestin2 signaling); assay type: cell-based; conditions: for IC50: CMKLR1-CHO-β-Arrestin cells, 20 nM chemerin, read-out: β-arrestin IC50 mean ± SEM (n)
T1 construct: host or cells: CHO-K1 (PathHunter CMKLR1 β-Arrestin cells)
T1 sequence (Q99788 1-373): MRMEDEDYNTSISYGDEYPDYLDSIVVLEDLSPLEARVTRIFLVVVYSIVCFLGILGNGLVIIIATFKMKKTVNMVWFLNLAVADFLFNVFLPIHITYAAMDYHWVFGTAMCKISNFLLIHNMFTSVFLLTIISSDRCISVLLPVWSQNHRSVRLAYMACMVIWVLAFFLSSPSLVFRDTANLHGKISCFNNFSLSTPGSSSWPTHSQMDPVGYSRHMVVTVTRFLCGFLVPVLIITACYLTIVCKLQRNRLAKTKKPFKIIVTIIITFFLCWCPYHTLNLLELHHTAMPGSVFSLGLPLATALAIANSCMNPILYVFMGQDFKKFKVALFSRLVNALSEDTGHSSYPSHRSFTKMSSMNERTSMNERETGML
Procedure: DiscoverX PathHunter® CHO-K1 CMKLR1 β-Arrestin Cells were grown in RPMI lacking phenol red (Gibco, Life Technologies), supplemented with L-glutamine, penicillin-streptomycin, sodium pyruvate, non-essential amino acid, BCS, hygromycin, and G418-sulfate. CMKLR1-CHO-β-Arrestin cells were seeded in 96 well plates at 1 × 10^5 cell/ml- 100 ul/well and incubated overnight at 37 °C, 5% CO2. […] (α-NETA and test compounds were reconstituted in DMSO; final DMSO concentration in each well was 0.1%). After 10 min, 5 ul of recombinant human chemerin (R&D Systems) at a final concentration of 20 nM was added to each well. Plates were incubated for 90 min at 37 °C, 5% CO2. Media was then removed and 50 ul of chemiluminescent substrate (Tropix Gal-Screen, Applied Biosciences) was added. The plate was incubated for 1 hr at RT and luminescence was detected using the SpectraMax M5 plate reader (Molecular Devices). For each independent trial (single replicate dose curves), data was normalized to the maximum signal per compound tested and an IC50 value was generated using GraphPad Prism software. The average IC50 value for n independent trials (as specified in the table) is reported.

(hu)CMKLR1 L1.2 cells = experiment: Chemotaxis assay toward huChemerin; assay type: cell-based, human; conditions: for IC50: (hu)CMKLR1 L1.2 cells migrating toward huChemerin, 2 h, read-out: Chemotaxis IC50 mean ± SEM (n)
Procedure: (hu)CMKLR1 transfectants (generated in L1.2 pre-B cell lymphoma cells) were grown in RPMI 1640 (Corning) supplemented with L-glutamine, penicillin-streptomycin, and 10% BCS and G418-sulfate (KSE Scientific). DiscoverX PathHunter® CHO-K1 CMKLR1 β-Arrestin Cells were grown in RPMI lacking phenol red (Gibco, Life Technologies), supplemented with L-glutamine, penicillin-streptomycin, sodium pyruvate, non-essential amino acid, BCS, hygromycin, and G418-sulfate.
(hu)CMKLR1 L1.2 cells at 1 × 10^6 cell/ml were treated with 5 mM sodium butyrate (Sigma) overnight to induce hCMKLR1 expression. The next day, cells were washed in migration media (RPMI + 0.5%BSA) and resuspended at 1.5–3 × 10^6 cell/ml. Cells were pre-incubated at RT for 10 min with various concentrations of α-NETA or test compounds (α-NETA and test compounds were reconstituted in DMSO; final DMSO concentration in each well was 0.1%). 100 ul of cells were added to the upper chamber of a 24-well transwell plate (5 um pore size, Costar). Cells were allowed to migrate toward huChemerin ([…] in migration media, bottom chamber) for 2 h, 37 °C, 5% CO2. The number of migrated cells was quantified by flow cytometry (BD LSR2), and live cells were distinguished based on FSC × SSC properties. The background for this assay was typically low with 0 cells migrating to the buffer alone. For each independent trial, data was normalized to the maximum migration per compound tested and an IC50 value was generated using GraphPad Prism software. The average IC50 value for n independent trials (as specified in the table) is reported.

C57BL/6 mice with EAE = experiment: Experimental autoimmune encephalomyelitis (EAE), MOG35–55/CFA immunization; assay type: in vivo, mouse; conditions: for Day of onset (Mean ± SEM) / Maximum Score (Mean ± SEM) / AUC (Mean ± SEM) of clinical score: Table 4, 10 mg/kg daily to D21, n = 8; for Maximum Score (Mean ± SEM): clinical score 0-5; for AUC (Mean ± SEM) of clinical score: mean clinical score x day
Procedure: C57BL/6 mice were purchased from The Jackson Laboratory. […] Animal experiments were conducted in accordance with approved Veterans Affairs, National Institutes of Health, and Institutional Animal Care and Use Committee guidelines.
CFA consisted of 5 mg/ml mTB (Mycobacterium-tuberculosis H37 Ra, BD Difco) in IFA (Incomplete Freund’s Adjuvant, Sigma). MOG35–55 was reconstituted at 2 mg/ml in PBS. Mice also received 200 ng pertussis toxin (List Biological Laboratories, Inc) by i.p. injection at the time of immunization and two days later. […] For a direct comparison to α-NETA, the DMF and compound doses were also 10 mg/kg in 10% captisol. Mice were monitored daily for clinical disease and scored (0 = normal/healthy, 1 = limp tail, 2 = hindlimb weakness, 3 = hindlimb paralysis, 4 = hindlimb and forelimb paralysis, 5 = moribund/dead).

[1] = Table 3 quaternary ammonium salts

Row | SMILES | IC50 (CMKLR1; Table 2 tertiary amines) | IC50 ((hu)CMKLR1 L1.2 cells) | IC50 (CMKLR1; [1]) | further results
1 | C[N+](C)(C)CCC(=O)C1CCCCC1 [Compound 25] | – | > 100 µM | 11.9 µM | –
2 | C[N+](C)(C)CCC(=O)c1ccc2ccccc2c1 [Compound 23] | – | 24.1 µM | 2.5 ± 0.9 µM | –
3 | COc1ccc(C(=O)CC[N+](C)(C)C)cc1.[I-] [Compound 27] | – | 4.5 ± 1.5 µM | 1.9 ± 0.2 µM | Day of onset (Mean ± SEM) (C57BL/6 mice with EAE): 16.0 ± 0.9; Maximum Score (Mean ± SEM) (C57BL/6 mice with EAE): 2.1 ± 0.1^¶; AUC (Mean ± SEM) of clinical score (C57BL/6 mice with EAE): 24.3 ± 4.2; activity in chemotaxis assay (in words) ((hu)CMKLR1 L1.2 cells): highly active; activity in β-arrestin2 assay (in words) (CMKLR1): highly active
4 | CCN(CC)CCC(=O)c1ccc2ccccc2c1 [Compound 8] | 71.3 µM | – | – | –
5 | C[N+](C)(C)CCC(=O)c1ccccc1.[I-] [Compound 24] | – | > 100 µM | 5.6 ± 0.7 µM | activity in chemotaxis assay (in words) ((hu)CMKLR1 L1.2 cells): did not show any activity
6 | COC(=O)/C=C/C(=O)OC [Tecfidera, dimethyl fumarate, reference compound] | – | – | – | day of EAE onset (mean ± SEM) (C57BL/6 mice with EAE; Fig. 1 study, 10 mg/kg daily in 10% captisol, s.c., d29 onset assumed for 2 α-NETA mice): 14 ± 2 days
7 | COc1cccc(OC)c1C(=O)CC[N+](C)(C)C.[I-] [Compound 30] | – | 6.8 µM | 2.1 ± 1.1 µM | activity in chemotaxis assay (in words) ((hu)CMKLR1 L1.2 cells): highly active; activity in β-arrestin2 assay (in words) (CMKLR1): highly active
8 | C[N+](C)(C)CCS(=O)(=O)c1ccccc1 [Compound 35] | – | – | – | activity in β-arrestin2 assay (in words) (CMKLR1): inactive
9 | COc1cc(OC)cc(C(=O)CC[N+](C)(C)C)c1 [Compound 31] | – | > 100 µM | 6 ± 2.2 µM | –
10 | COc1cccc(C(=O)CC[N+](C)(C)C)c1 [Compound 28] | – | 14.6 ± 4.8 µM | 3.8 ± 1.7 µM | –
11 | CCCCN(C)CCC(=O)c1ccc2ccccc2c1 [Compound 10] | 44.5 µM | – | – | –
12 | COc1ccc(C(=O)CC[N+](C)(C)C)c(OC)c1 [Compound 29] | – | 17.4 ± 2.2 µM | 4.8 ± 1.6 µM | –
13 | CN(C)CCC(=O)C1CCCCC1 [Compound 20] | > 100 µM | – | – | activity in β-arrestin2 assay (in words) (CMKLR1): complete loss of activity
14 | COc1ccc2cc(C(=O)CC[N+](C)(C)C)ccc2c1 [Compound 32] | – | 20 ± 6.2 µM | 1.5 ± 0.3 µM | –

Second part, led by results:

Row | IC50 (CMKLR1; Table 2 tertiary amines) | IC50 ((hu)CMKLR1 L1.2 cells) | IC50 (CMKLR1; [1]) | SMILES | further results
15 | 39.6 µM | – | – | CCN(C)CCC(=O)c1ccc2ccccc2c1 [Compound 9] | –
16 | – | 7.2 µM | 2.9 ± 1.6 µM | COc1ccccc1C(=O)CC[N+](C)(C)C.[I-] [Compound 26] | activity in chemotaxis assay (in words) ((hu)CMKLR1 L1.2 cells): highly active; activity in β-arrestin2 assay (in words) (CMKLR1): highly active
17 | 10.3 ± 4.5 µM | – | – | COc1cccc(OC)c1C(=O)CCN(C)C [Compound 19] | –
18 | 18.5 µM | – | – | CN(C)CCC(=O)c1ccc2ccccc2c1 [Compound 7] | –
19 | – | 10.7 µM | 0.6 ± 0.3 µM | COc1ccc2ccccc2c1C(=O)CC[N+](C)(C)C [Compound 33] | –
20 | > 100 µM | – | – | COc1ccc2cc(C(=O)CCN(C)C)ccc2c1 [Compound 11] | –
21 | 6.2 ± 2.5 µM | – | – | COc1ccc2ccccc2c1C(=O)CCN(C)C [Compound 6] | Day of onset (Mean ± SEM) (C57BL/6 mice with EAE): 14.5 ± 0.4; Maximum Score (Mean ± SEM) (C57BL/6 mice with EAE): 2.4 ± 0.2; AUC (Mean ± SEM) of clinical score (C57BL/6 mice with EAE): 25.2 ± 4.0
22 | 64 µM | – | – | COc1cccc(C(=O)CCN(C)C)c1 [Compound 18] | –
23 | > 100 µM | – | – | COc1ccc(C(=O)CCN(C)C)cc1 [Compound 17] | –
24 | > 100 µM | – | – | COc1ccccc1C(=O)CCN(C)C [Compound 16] | –
